These compounds were tested against T1, full-length beta-Catenin (Uniprot ID P35222) (Homo sapiens, UniProt P35222) (assay: Fluorescence polarization IC50 (beta-catenin / 5FAM-TCF4 10-53 competition)). Details: fluorescence polarization, beta-catenin; read-out: FP EC50.
T1 construct: 10 nM full-length beta-Catenin (Uniprot ID P35222)
T1 sequence (P35222 1-781): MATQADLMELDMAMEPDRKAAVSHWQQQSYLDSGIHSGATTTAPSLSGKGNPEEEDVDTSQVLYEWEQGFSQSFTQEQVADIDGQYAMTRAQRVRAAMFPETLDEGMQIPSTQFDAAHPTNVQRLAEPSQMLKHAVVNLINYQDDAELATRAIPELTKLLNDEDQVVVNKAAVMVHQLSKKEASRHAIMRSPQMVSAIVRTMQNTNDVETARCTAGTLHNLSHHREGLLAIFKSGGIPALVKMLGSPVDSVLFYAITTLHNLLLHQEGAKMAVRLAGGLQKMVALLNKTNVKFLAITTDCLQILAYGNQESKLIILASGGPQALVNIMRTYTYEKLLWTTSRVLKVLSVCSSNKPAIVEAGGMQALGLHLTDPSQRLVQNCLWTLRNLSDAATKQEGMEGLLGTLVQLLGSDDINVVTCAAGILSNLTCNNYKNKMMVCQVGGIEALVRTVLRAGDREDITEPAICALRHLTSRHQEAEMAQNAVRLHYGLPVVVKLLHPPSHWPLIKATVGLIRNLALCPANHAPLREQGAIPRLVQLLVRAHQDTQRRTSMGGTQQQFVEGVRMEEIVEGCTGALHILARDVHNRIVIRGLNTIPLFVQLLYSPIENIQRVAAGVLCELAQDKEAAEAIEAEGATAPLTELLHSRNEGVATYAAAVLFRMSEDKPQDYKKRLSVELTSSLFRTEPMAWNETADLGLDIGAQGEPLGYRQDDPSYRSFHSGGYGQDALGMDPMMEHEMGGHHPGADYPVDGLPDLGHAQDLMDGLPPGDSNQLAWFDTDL
Type: binding

IC50	Compound
11 nM	CC(=O)N1CCC[C@]12CC=CCCCC1(CCCC=CCCCOC(=O)N3CC[C@@](C(=O)N[C@@H](Cc4ccccc4Cl)C(=O)N[C@@H](Cc4csc5ccccc45)C(=O)N[C@@H](CCC(N)=O)C(N)=O)(C3)NC(=O)[C@H](CC(N)=O)NC(=O)[C@H](Cc3ccccc3)NC(=O)[C@H](C)NC(=O)[C@H](C)NC(=O)[C@H](CN(CC(=O)O)Cc3c(F)c(F)c(F)c(F)c3F)NC(=O)[C@H](CC(=O)O)NC1=O)NC(=O)[C@H](CC(C)(C)C)NC(=O)[C@H](CC(=O)O)NC2=O (stereo partly drawn) [I-1450, Ac-PL3-Asp-Npg-B5-Asp-[Pfbn]GA-Ala-Ala-Phe-Asn-PyrS2-2C1F-BztA-Gln-NH2]

Same assay, conditions: fluorescence polarization; read-out: beta-Catenin FP IC50

Compound	IC50
COc1cccc(C[C@H](NC(=O)[C@]23CCN(C2)C(=O)OCCCC=CCCCC2(CCCC=CC[C@]4(CCCN4C(C)=O)C(=O)N[C@@H](CC(N)=O)C(=O)N[C@@H](CC4CCCCC4)C(=O)N2)C(=O)N[C@@H](CC(=O)O)C(=O)N[C@@H](CCC(N)=O)C(=O)N[C@@H](CCCCNC(C)C)C(=O)N[C@@H](C)C(=O)N[C@@H](Cc2ccccc2)C(=O)N[C@@H](CC(N)=O)C(=O)N3)C(=O)N[C@@H](Cc2csc3ccccc23)C(=O)N[C@@H](CCO)C(N)=O)c1 (stereo partly drawn) [I-1930, Ac-PL3-Asn-Cha-B5-Asp-Gln-iPrLys-Ala-Phe-Asn-PyrS2-3OMeF-BztA-Hse-NH2]	1560 nM
CC(=O)N[C@]12CCN(C1)C(=O)OCC=CCCCC1(CCCC=CCCCOC(=O)N3CC[C@@](C(=O)N[C@@H](Cc4ccccc4C(F)(F)F)C(=O)N[C@@H](Cc4csc5ccccc45)C(=O)N[C@@H](CCC(N)=O)C(N)=O)(C3)NC(=O)[C@H](CC(C)C)NC(=O)[C@H](Cc3ccccc3)NC(=O)[C@H](C)NC(=O)[C@H](C)NC(=O)[C@H](Cc3cccc(C(=O)O)c3)NC(=O)[C@H](CC(=O)O)NC1=O)NC(=O)[C@H](CC(C)(C)C)NC(=O)[C@H](CC(=O)O)NC(=O)[C@H](C)NC2=O (stereo partly drawn) [I-2568, Ac-PyrR-Ala-Asp-Npg-B5-Asp-3COOHF-Ala-Ala-Phe-Leu-PyrS2-2F3MeF-BztA-Gln-NH2]	4770 nM
CC(=O)N1CCC[C@]12CC=CCCCC1(CCCC=CCCCOC(=O)N3CC[C@](C(=O)N[C@@H](Cc4ccsc4)C(=O)N[C@@H](Cc4csc5ccccc45)C(=O)N[C@@H](CCC(N)=O)C(N)=O)(C3)NC(=O)[C@H](CC(N)=O)NC(=O)[C@H](Cc3ccccc3)NC(=O)[C@H](C)NC(=O)[C@H](C)NC(=O)[C@H](CC(=O)O)NC(=O)[C@H](CC(=O)O)NC1=O)NC(=O)[C@H](CC(C)(C)C)NC(=O)[C@H](CC(=O)O)NC2=O (stereo partly drawn) [I-2017, Ac-PL3-Asp-Npg-B5-Asp-Asp-Ala-Ala-Phe-Asn-PyrR2-3Thi-BztA-Gln-NH2]	2050 nM
CC(=O)N1CCC[C@]12CC=CCCCC1(CCCC=CCCCOC(=O)N3CC[C@@](C(=O)N[C@@H](Cc4ccsc4)C(=O)N[C@@H](Cc4csc5ccccc45)C(=O)N[C@@H](CCC(N)=O)C(N)=O)(C3)NC(=O)[C@H](CC(N)=O)NC(=O)[C@H](Cc3ccc(O)cc3)NC(=O)[C@H](C)NC(=O)[C@H](C)NC(=O)[C@H]([C@@H](C)O)NC(=O)[C@H](CC(N)=O)NC1=O)NC(=O)[C@H](CC(C)(C)C)NC(=O)[C@H](CC(=O)O)NC2=O (stereo partly drawn) [I-2016, Ac-PL3-Asp-Npg-B5-Asn-Thr-Ala-Ala-Tyr-Asn-PyrS2-3Thi-BztA-Gln-NH2]	703 nM
CC(=O)N1CCC[C@]12CC=CCCCC1(CCCC=CCCCOC(=O)N3CC[C@@](C(=O)N[C@@H](Cc4ccccc4)C(=O)N[C@@H](Cc4csc5ccccc45)C(=O)N[C@@H](CCCCN)C(N)=O)(C3)NC(=O)[C@H](CC(C)C)NC(=O)[C@H](Cc3ccccc3)NC(=O)[C@H](C)NC(=O)[C@H](CCCCNC(C)C)NC(=O)[C@H](CCC(N)=O)NC(=O)[C@H](CC(=O)O)NC1=O)NC(=O)[C@H](CC(C)(C)C)NC(=O)[C@H](CC(N)=O)NC2=O (stereo partly drawn) [I-1643, Ac-PL3-Asn-Npg-B5-Asp-Gln-iPrLys-Ala-Phe-Leu-PyrS2-Phe-BztA-Lys-NH2]	822 nM
CC(=O)N1CCC[C@H]1C(=O)N[C@@H](CC(=O)O)C(=O)N[C@@H](CC(C)(C)C)C(=O)N[C@]1(C)CCCCCCOC(=O)N2CC[C@@](C(=O)N[C@@H](Cc3ccsc3)C(=O)N[C@@H](Cc3csc4ccccc34)C(=O)N[C@@H](CCC(N)=O)C(N)=O)(C2)NC(=O)[C@H](CC(C)C)NC(=O)[C@H](Cc2ccccc2)NC(=O)[C@H](C)NC(=O)[C@H](C)NC(=O)[C@H](CC(=O)O)NC(=O)[C@H](CC(=O)O)NC1=O [I-1993, Ac-Pro-Asp-Npg-R3-Asp-Asp-Ala-Ala-Phe-Leu-PyrS2-3Thi-BztA-Gln-NH2]	728 nM

Stronger by IC50, values ahead:

IC50	Compound
214 nM	CC(=O)N1CCC[C@]12CCCCCCC1(CCCCCCCCOC(=O)N3CC[C@@](C(=O)N[C@@H](Cc4ccsc4)C(=O)N[C@@H](Cc4csc5ccccc45)C(=O)N[C@@H](CCC(N)=O)C(N)=O)(C3)NC(=O)[C@H](CC(C)C)NC(=O)[C@H](Cc3ccccc3)NC(=O)[C@H](C)NC(=O)[C@H](C)NC(=O)[C@H](CN(CC(=O)O)CC(F)(F)F)NC(=O)[C@H](CC(=O)O)NC1=O)NC(=O)[C@H](CC(C)(C)C)NC(=O)[C@H](CC(=O)O)NC2=O (stereo partly drawn) [I-1605, Ac-PL3-Asp-Npg-B5-Asp-TfeGA-Ala-Ala-Phe-Leu-PyrS2-3Thi-BztA-Gln-NH2]
382 nM	CC(=O)N1CCC[C@]12CCCCCCC1(CCCCCCCCOC(=O)N3CC[C@@](C(=O)N[C@@H](Cc4ccsc4)C(=O)N[C@@H](Cc4csc5ccccc45)C(=O)N[C@@H](Cc4cccc(C(N)=O)c4)C(N)=O)(C3)NC(=O)[C@H](CC(C)C)NC(=O)[C@H](Cc3ccccc3)NC(=O)[C@H](C)NC(=O)[C@H](C)NC(=O)[C@H](CN(CC(=O)O)CC(F)(F)F)NC(=O)[C@H](CC(=O)O)NC1=O)NC(=O)[C@H](CC(C)(C)C)NC(=O)[C@H](CC(=O)O)NC2=O (stereo partly drawn) [I-1718, Ac-PL3-Asp-Npg-B5-Asp-TfeGA-Ala-Ala-Phe-Leu-PyrS2-3Thi-BztA-3cbmf-NH2]
140 nM	CC(=O)N1CCC[C@]12CC=CCCCC1(CCCC=CCCCOC(=O)N3CC[C@@](C(=O)N[C@@H](Cc4ccsc4)C(=O)N[C@@H](Cc4csc5ccccc45)C(=O)N[C@@H](C)C(N)=O)(C3)NC(=O)[C@H](CC(N)=O)NC(=O)[C@H](Cc3ccccc3)NC(=O)[C@H](C)NC(=O)C(C)(C)NC(=O)[C@H]([C@@H](C)O)NC(=O)[C@H](CC(N)=O)NC1=O)NC(=O)[C@H](CC(C)(C)C)NC(=O)[C@H](CC(=O)O)NC2=O (stereo partly drawn) [I-2411, Ac-PL3-Asp-Npg-B5-Asn-Thr-Aib-Ala-Phe-Asn-PyrS2-3Thi-BztA-Ala-NH2]
610 nM	CC(=O)N1CCC[C@]12CC=CCCCC1(CCCC=CCCCOC(=O)N3CC[C@@](C(=O)N[C@@H](Cc4ccccc4)C(=O)N[C@@H](Cc4csc5ccccc45)C(=O)N[C@@H](CC(=O)N4CCOCC4)C(N)=O)(C3)NC(=O)[C@H](CC(C)C)NC(=O)[C@H](Cc3ccccc3)NC(=O)[C@H](C)NC(=O)[C@H](CCCCNC(=O)CCN(C)C)NC(=O)[C@H](CCC(N)=O)NC(=O)[C@H](CC(=O)O)NC1=O)NC(=O)[C@H](CC1CCCCC1)NC(=O)[C@H](CC(N)=O)NC2=O (stereo partly drawn) [I-2528, Ac-PL3-Asn-Cha-B5-Asp-Gln-[Me2Npr]Lys-Ala-Phe-Leu-PyrS2-Phe-BztA-MorphAsn-NH2]
9 nM	CC(=O)N1CCC[C@]12CC=CCCCC1(CCCC=CCCCOC(=O)N3CC[C@@](C(=O)N[C@@H](Cc4ccccc4)C(=O)N[C@@H](Cc4csc5ccccc45)C(=O)N[C@@H](CCC(N)=O)C(N)=O)(C3)NC(=O)[C@H](CC(C)C)NC(=O)[C@H](Cc3ccccc3)NC(=O)[C@H](C)NC(=O)[C@H](C)NC(=O)[C@H](CC(=O)O)NC(=O)[C@H](CC(=O)O)NC1=O)NC(=O)[C@H](CC(C)C)NC(=O)[C@H](CC(=O)O)NC2=O (stereo partly drawn) [I-1402, Ac-PL3-Asp-Leu-B5-Asp-Asp-Ala-Ala-Phe-Leu-PyrS2-Phe-BztA-Gln-NH2]
11 nM	CC(=O)N1CCC[C@]12CC=CCCCC1(CCCC=CCCCOC(=O)N3CC[C@@](C(=O)N[C@@H](Cc4ccccc4Cl)C(=O)N[C@@H](Cc4csc5ccccc45)C(=O)N[C@@H](CCC(N)=O)C(N)=O)(C3)NC(=O)[C@H](CC(N)=O)NC(=O)[C@H](Cc3ccccc3)NC(=O)[C@H](C)NC(=O)[C@H](C)NC(=O)[C@H](CN(CC(=O)O)Cc3c(F)c(F)c(F)c(F)c3F)NC(=O)[C@H](CC(=O)O)NC1=O)NC(=O)[C@H](CC(C)(C)C)NC(=O)[C@H](CC(=O)O)NC2=O (stereo partly drawn) [I-1450, Ac-PL3-Asp-Npg-B5-Asp-[Pfbn]GA-Ala-Ala-Phe-Asn-PyrS2-2C1F-BztA-Gln-NH2]
12 nM	CC(=O)N1CCC[C@]12CC=CCCCC1(CCCC=CCCCOC(=O)N3CC[C@@](C(=O)N[C@@H](Cc4ccccc4C(F)(F)F)C(=O)N[C@@H](Cc4csc5ccccc45)C(=O)N[C@@H](CO)C(N)=O)(C3)NC(=O)[C@H](CC(C)C)NC(=O)[C@H](Cc3ccccc3)NC(=O)[C@H](C)NC(=O)[C@H](C)NC(=O)[C@H](Cn3cc(CCC(=O)O)nn3)NC(=O)[C@H](CC(=O)O)NC1=O)NC(=O)[C@H](CC(C)(C)C)NC(=O)[C@H](CC(=O)O)NC2=O (stereo partly drawn) [I-2370, Ac-PL3-Asp-Npg-B5-Asp-[CH2CH2CO2H]TriAzDap-Ala-Ala-Phe-Leu-PyrS2-2F3MeF-BztA-Ser-NH2]
72 nM	CC(=O)N1CCC[C@]12CC=CCCCC1(CCCC=CCCCOC(=O)N3CC[C@@](C(=O)N[C@@H](Cc4ccccc4C(F)(F)F)C(=O)N[C@@H](Cc4csc5ccccc45)C(=O)N[C@@H](CCC(N)=O)C(=O)N[C@@H](CC(C)C)C(=O)NC4(C(N)=O)CC4)(C3)NC(=O)[C@H](CC(C)C)NC(=O)[C@H](Cc3ccccc3)NC(=O)[C@H](C)NC(=O)[C@H](C)NC(=O)[C@H](Cc3cccc(C(=O)O)c3)NC(=O)[C@H](CC(=O)O)NC1=O)NC(=O)[C@H](CC(C)(C)C)NC(=O)[C@H](CC(=O)O)NC2=O (stereo partly drawn) [I-2389, Ac-PL3-Asp-Npg-B5-Asp-3COOHF-Ala-Ala-Phe-Leu-PyrS2-2F3MeF-BztA-Gln-Leu-Cpg-NH2]
